From ChEMBL document CHEMBL1201862, “PubChem BioAssay data set” (2004)
Calls of active or inactive are those of the source.

Experiments:
[1] = molecular target: T1, Heat shock factor protein 1 (Mus musculus, UniProt P38532); assay: HSF1 potentiators in luciferase reporter cells, confirmation, cell-based, NIH3T3, luminescence, dose retest (AID 435004); type: functional;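 note: stress induced by proteasome inhibitor MG132 added 30 min after compound; luciferase reporter driven by HSF1 response element in NIH3T3 cells; actives raise luminescence as potentiators of the MG132 stress response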
T1 sequence (P38532 whole entry): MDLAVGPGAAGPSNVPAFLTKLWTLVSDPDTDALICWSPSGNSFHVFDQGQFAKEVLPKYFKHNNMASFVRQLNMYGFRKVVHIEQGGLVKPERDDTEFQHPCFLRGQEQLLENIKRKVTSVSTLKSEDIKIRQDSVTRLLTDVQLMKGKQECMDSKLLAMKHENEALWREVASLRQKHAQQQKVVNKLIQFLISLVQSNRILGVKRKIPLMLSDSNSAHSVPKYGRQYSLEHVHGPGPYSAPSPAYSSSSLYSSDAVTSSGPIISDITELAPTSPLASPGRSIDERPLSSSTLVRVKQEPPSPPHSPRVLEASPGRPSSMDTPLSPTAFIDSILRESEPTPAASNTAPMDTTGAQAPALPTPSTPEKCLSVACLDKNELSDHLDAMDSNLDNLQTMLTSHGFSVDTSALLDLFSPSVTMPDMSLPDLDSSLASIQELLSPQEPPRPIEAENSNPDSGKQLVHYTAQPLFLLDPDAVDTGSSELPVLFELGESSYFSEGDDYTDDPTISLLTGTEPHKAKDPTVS

[2] = molecular target: T2, Mannose-6-phosphate isomerase (Homo sapiens, UniProt P34949); assay: human PMI inhibitors, high substrate, primary screen, biochemical, fluorescence intensity, high mannose 6-phosphate (AID 1220)
T2 sequence (P34949 whole entry): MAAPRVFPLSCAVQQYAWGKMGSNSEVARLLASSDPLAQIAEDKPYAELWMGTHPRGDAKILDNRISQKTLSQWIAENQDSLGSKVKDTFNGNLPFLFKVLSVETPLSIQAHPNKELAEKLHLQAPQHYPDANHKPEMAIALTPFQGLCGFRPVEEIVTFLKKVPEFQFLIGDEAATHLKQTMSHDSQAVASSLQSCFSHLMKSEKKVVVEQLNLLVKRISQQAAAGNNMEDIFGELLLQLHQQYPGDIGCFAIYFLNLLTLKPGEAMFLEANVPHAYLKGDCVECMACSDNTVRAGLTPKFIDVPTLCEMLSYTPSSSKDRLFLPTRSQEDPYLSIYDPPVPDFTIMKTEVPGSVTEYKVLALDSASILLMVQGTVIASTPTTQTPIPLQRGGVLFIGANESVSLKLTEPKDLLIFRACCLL

Protein RecA = molecular target: T3, Protein RecA (Mycobacterium tuberculosis, UniProt P9WHJ3); assay: Fluorescence Cell-Free Homogeneous Dose Retest to Identify Inhibitors of RecA-Intein Splicing Activity. [Related pubchem assays (depositor defined):AID2097, AID2223, AID489010, AID492950]; type: functional
T3 sequence (P9WHJ3 whole entry): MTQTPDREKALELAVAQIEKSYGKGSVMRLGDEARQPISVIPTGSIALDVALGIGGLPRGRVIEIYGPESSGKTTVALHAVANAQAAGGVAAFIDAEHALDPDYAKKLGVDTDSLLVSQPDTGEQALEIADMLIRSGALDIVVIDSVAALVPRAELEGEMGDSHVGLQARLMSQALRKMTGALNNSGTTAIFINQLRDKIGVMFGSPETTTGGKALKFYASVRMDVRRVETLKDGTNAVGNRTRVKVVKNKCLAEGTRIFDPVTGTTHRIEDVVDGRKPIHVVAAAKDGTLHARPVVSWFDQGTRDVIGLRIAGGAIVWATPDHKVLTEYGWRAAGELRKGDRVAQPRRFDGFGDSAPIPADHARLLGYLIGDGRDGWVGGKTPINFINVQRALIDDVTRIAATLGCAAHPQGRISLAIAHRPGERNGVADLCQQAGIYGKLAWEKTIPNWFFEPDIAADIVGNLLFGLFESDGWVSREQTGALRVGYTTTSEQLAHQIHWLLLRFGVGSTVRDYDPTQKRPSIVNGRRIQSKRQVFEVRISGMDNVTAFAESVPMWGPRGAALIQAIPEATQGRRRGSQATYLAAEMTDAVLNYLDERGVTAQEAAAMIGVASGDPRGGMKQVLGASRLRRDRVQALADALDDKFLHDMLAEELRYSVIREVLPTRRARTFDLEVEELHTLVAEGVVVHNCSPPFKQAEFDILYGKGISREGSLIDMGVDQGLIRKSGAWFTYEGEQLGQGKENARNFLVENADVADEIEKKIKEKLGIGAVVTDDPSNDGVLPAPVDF

[3] = molecular target: T4, Adenosylmethionine-8-amino-7-oxononanoate aminotransferase (Mycobacterium tuberculosis, UniProt P9WQ81); assay: Mycobacterium tuberculosis BioA enzyme inhibitor Measured in Biochemical System Using Plate Reader - 2163-02_Inhibitor_Dose_CherryPick_Activity.; type: functional, Mycobacterium tuberculosis UT205
T4 sequence (P9WQ81 whole entry): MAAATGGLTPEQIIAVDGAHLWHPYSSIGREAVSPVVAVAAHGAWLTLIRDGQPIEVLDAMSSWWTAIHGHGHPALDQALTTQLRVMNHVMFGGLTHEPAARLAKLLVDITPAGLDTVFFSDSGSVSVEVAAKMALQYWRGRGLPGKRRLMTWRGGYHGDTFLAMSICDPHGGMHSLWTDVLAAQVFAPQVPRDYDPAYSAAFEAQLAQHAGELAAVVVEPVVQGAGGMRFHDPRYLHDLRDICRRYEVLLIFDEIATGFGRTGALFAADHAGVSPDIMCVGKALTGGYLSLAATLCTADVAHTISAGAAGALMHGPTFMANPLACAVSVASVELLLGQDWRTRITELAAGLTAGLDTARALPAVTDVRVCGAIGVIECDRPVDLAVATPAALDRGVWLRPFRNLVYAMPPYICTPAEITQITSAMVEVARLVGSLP

[4] = molecular target: Peroxisome proliferator-activated receptor gamma/Nuclear receptor coactivator 3 (Homo sapiens, UniProt P37231); type: functional;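 note: agonist potency for raising coactivator recruitment to the receptor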
[5] = molecular target: Peroxisome proliferator-activated receptor gamma/Nuclear receptor coactivator 2 (Homo sapiens, UniProt P37231); type: functional;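 note: agonist potency for raising coactivator recruitment to the receptor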
[6] = molecular target: Peroxisome proliferator-activated receptor gamma/Nuclear receptor coactivator 1 (Homo sapiens, UniProt P37231); type: functional;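 note: agonist potency as compounds enhance coactivator SRC-1 recruitment to PPARgamma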
Sequence of Peroxisome proliferator-activated receptor gamma/Nuclear receptor coactivator 1 (P37231 whole entry): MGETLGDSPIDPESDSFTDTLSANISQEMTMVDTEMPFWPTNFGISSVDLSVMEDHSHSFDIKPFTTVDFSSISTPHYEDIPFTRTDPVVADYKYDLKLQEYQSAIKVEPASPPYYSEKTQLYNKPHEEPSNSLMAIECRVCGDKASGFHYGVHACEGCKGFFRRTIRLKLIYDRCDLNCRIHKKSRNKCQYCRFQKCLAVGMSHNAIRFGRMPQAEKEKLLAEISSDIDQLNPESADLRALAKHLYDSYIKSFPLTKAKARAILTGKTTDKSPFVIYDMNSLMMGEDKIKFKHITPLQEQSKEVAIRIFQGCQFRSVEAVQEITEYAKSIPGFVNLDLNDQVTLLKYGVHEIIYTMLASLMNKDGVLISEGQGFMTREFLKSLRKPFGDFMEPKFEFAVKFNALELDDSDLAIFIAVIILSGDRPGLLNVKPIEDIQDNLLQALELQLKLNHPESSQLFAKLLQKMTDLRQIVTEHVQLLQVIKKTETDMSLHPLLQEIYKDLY
Sequence of Peroxisome proliferator-activated receptor gamma/Nuclear receptor coactivator 1 (Q15788 whole entry, further chain): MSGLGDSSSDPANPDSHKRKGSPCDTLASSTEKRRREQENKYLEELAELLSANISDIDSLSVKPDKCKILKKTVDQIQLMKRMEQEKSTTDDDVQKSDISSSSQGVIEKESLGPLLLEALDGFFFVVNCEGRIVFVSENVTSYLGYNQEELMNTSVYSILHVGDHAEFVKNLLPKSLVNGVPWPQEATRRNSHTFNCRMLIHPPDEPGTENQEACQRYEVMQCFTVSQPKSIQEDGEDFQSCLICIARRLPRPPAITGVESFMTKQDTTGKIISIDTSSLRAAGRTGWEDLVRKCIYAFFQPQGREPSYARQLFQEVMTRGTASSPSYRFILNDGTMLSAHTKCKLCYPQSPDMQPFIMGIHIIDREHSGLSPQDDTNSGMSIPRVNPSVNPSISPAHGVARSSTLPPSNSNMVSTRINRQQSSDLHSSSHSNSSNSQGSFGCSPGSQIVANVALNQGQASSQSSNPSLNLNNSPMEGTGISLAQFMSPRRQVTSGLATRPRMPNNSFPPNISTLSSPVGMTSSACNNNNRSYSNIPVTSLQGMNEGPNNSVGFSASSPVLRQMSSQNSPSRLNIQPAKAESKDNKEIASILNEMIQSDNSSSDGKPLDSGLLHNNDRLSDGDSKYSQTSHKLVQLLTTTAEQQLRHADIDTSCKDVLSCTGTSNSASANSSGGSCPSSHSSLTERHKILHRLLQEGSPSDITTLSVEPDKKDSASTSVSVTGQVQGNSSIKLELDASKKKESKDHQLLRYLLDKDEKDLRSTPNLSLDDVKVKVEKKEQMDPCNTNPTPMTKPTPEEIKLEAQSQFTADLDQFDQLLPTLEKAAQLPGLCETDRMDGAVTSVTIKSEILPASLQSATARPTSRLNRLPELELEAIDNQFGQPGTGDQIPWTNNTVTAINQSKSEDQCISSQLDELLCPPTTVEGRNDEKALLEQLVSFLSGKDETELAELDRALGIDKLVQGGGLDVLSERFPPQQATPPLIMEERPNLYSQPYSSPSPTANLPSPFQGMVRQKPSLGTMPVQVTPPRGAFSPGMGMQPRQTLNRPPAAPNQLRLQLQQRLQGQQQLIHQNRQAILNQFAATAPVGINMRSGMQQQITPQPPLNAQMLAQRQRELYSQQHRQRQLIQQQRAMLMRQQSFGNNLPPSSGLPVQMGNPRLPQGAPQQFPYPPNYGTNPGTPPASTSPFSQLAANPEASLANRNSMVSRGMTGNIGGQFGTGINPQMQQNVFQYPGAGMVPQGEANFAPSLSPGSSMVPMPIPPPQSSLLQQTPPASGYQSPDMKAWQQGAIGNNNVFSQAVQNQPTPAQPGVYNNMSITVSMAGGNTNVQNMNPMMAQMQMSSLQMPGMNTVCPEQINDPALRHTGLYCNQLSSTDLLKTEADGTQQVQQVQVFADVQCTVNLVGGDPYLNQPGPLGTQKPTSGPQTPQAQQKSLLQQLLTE

[7] = molecular target: Induced myeloid leukemia cell differentiation protein Mcl-1 (Homo sapiens, UniProt Q07820); type: functional
Sequence of Induced myeloid leukemia cell differentiation protein Mcl-1 (Q07820 whole entry): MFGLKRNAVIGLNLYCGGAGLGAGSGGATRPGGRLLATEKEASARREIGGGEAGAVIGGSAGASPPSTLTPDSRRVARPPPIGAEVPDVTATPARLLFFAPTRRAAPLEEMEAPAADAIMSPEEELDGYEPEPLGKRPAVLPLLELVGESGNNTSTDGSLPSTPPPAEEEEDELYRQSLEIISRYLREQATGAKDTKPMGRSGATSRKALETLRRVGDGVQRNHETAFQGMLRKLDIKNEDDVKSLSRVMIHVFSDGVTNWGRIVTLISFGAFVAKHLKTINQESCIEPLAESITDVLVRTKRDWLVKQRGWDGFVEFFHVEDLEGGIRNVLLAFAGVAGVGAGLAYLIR

[8] = LGR2 antagonists, dose response, cell-based, HEK293, CRE-luciferase reporter, cherry pick, set 2 (AID 743343); type: functional;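 note: transfected cells were stimulated with diluted bursicon conditioned medium after compound addition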
[9] = A549 cell cytotoxicity, dose response, cytotoxicity control, plate reader, cherry-pick, antagonist series (AID 743412); type: functional, cell-based
[10] = MC4R antagonists, dose response, counter-screen for LGR2 antagonist project, cell-based, plate reader, cherry pick (AID 743444); type: functional;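 note: transfected HEK 293 cells stimulated with alpha-MSH peptide; potency of inhibitors of the alpha-MSH evoked signal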
[11] = control 3'UTR Renilla luciferase suppression, dose response, counter-screen for Shn3 inhibitor project, cell-based, Clone20-Shn3RL, cherry-picked (AID 624133); type: functional
[12] = HepG2 cell cytotoxicity, dose response, cytotoxicity control for Shn3 inhibitor project, CellTiter-Glo, cherry-picked (AID 624134); type: functional, cell-based
[13] = Shn3 3'UTR reporter inhibitors, dose response, cell-based, Clone20 osteoblasts, firefly luciferase, cherry-picked (AID 624132); type: functional;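 note: firefly luciferase luminescence from reporter carrying the Shn3 3'UTR in osteoblasts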
Protein Wnt-3a = Protein Wnt-3a (Mus musculus, UniProt P27467); assay: Wnt3a-driven reporter signaling inhibition, dose response, selectivity assay for Gli-SUFU antagonist project, Wnt-LIGHT cells, luminescence (AID 651570); type: functional; conditions: read-out: IC50_Mean;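 note: Wnt-LIGHT reporter cells stimulated with conditioned medium from Wnt3a-producing cells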
Sequence of Protein Wnt-3a (P27467 whole entry): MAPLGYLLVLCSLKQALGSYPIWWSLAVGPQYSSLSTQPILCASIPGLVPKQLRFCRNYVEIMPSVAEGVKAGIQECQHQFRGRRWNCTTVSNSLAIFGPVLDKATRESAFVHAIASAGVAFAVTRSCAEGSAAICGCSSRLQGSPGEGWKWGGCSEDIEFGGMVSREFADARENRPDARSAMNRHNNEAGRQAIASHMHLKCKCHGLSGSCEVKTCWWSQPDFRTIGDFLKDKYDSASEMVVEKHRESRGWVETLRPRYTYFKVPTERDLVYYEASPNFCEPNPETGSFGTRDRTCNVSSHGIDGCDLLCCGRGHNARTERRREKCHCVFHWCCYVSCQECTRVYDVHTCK

[14] = cytotoxicity in HEK-293T cells, dose response, cytotoxicity control for TCR NF-kB inhibitor project, luminescence, T-cell screen hits (AID 489026); type: functional, cell-based;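 note: cells exposed to compound about 14 hours before the viability readout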
Beta-galactosidase = Beta-galactosidase (Escherichia coli, UniProt Q8VNN2); assay: Dose response counterscreen for EBI2 assay utilizing the enzyme, b-galactosidase.; type: functional
Sequence of Beta-galactosidase (Q8VNN2 whole entry): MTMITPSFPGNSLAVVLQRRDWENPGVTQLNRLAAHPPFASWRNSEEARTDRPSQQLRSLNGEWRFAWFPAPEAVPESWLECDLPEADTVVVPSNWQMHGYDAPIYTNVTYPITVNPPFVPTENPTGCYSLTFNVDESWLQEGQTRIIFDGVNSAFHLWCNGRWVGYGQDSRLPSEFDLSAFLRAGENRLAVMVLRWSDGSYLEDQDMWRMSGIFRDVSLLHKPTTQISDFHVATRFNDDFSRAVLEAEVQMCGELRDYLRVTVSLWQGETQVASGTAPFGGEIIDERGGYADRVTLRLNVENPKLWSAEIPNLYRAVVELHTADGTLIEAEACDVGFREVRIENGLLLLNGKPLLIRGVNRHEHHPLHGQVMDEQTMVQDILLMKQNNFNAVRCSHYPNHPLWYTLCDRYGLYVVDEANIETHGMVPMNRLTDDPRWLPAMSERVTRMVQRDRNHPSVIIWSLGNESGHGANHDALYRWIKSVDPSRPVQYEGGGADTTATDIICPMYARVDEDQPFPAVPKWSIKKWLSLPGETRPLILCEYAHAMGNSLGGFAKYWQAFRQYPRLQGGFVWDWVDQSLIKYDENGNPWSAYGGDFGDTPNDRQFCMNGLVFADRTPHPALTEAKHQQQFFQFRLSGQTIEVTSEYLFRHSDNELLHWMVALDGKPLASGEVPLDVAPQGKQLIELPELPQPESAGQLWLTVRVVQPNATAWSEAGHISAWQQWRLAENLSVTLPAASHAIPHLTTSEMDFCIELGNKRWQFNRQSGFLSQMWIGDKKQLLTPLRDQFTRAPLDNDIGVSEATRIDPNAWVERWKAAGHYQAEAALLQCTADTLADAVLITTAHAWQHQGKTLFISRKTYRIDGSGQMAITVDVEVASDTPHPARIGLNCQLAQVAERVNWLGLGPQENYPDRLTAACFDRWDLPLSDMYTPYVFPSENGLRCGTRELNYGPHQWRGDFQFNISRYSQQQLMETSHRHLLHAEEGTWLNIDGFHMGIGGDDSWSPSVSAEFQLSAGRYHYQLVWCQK

In the case of `CCCCn1c(NC(=O)c2ccco2)c(S(=O)(=O)c2ccc(C)cc2)c2nc3ccccc3nc21`, the EC50 [1] is reported as 152 µM (active), the IC50 [2] is reported as > 50 µM (not active) and the EC50 (Protein RecA) is reported as > 380 µM (inactive).
In the case of `COc1ccc(CCNC(=O)c2cnc3n(c2=O)CCS3)cc1OC`, the AC50 [3] is reported as 13.7 µM (active).
For `CN(CP(=O)(O)CN(C)S(C)(=O)=O)S(C)(=O)=O`, the EC50 [4] was > 79.4 µM (not active), the EC50 [5] was > 79.4 µM (not active) and the EC50 [6] was > 79.4 µM (not active).
For `CSc1nc(N(C)CCO)c2sc3nc(-c4ccco4)c4c(c3c2n1)CCC4`, the IC50 [7] was 5.59 µM (active).
In the case of `COc1cc(-c2nc3ccccc3nc2-c2ccc(O)c(OC)c2)ccc1O`, the AC50 [3] is reported as 3.99 µM (active).
In the case of `CCOc1ccc(NC(S)=Nc2cccc3cnccc23)cc1`, the IC50 [2] is reported as > 50 µM (not active).
For `CCCCc1ccc(NC(=O)c2cnccn2)cc1`, the AC50 [8] was 12.4 µM (active), the AC50 [9] was > 52 µM (inactive) and the AC50 [10] was 9.42 µM (active).
For `CCCCc1ccc(NC(=O)C(=O)NCCN2CCN(Cc3ccc([N+](=O)[O-])cc3)CC2)cc1`, the AC50 [11] was 4.92 µM (active), the AC50 [12] was 64.2 µM (active) and the AC50 [13] was 1.13 µM (active). The IC50 (Protein Wnt-3a) was 1.8 µM (active) and the IC50 [14] was > 80 µM (inactive).
With `CCN(CC)c1ccc(NC(=S)Nc2ccc(F)cc2)cc1` the IC50 [2] was > 50 µM (not active).
For `O=[N+]([O-])c1ccc(NN=Cc2cc(Br)ccc2O)nc1`, the IC50 (Beta-galactosidase) was 39.2 µM (active).
